Read-outs that look alike come from different tables or passages of the source.

These results are taken from patent US20260152509A1, “DELIVERY OF THERAPEUTIC ALKALOID COMPOUNDS” (priority 2021, published 2026).

The format of data set [1] is physicochemical. Conditions: for Conversion (%) / Notes (stability): 0.5 mM. How it is done: The hydrolysis kinetics was under a certain temperature and measured by LCMS at a certain time interval. The corresponding LCMS chromatograms were recorded and the conversions were calculated. The hydrolysis conditions and the data were summarized in below table. LCMS spectra were obtained using Agilent 1200\G1956A or SHIMADZU LCMS-2020. Standard LCMS conditions were as follows (running time 1.55 minutes):
Acidic condition: Mobile Phase A: 0.0375% TFA in water (v/v). Mobile Phase B: 0.01875% TFA in acetonitrile (v/v); Column: Kinetex EVO C18 30*2.1 mm, 5 μm.
Basic condition: Mobile Phase A: 0.025% NH3·H2O in water (v/v). Mobile Phase B: Acetonitrile; Column: Kinetex EVO C18 2.1×30 mm, 5 μm.
Conversion (%)=peak area 1/(peak area 1+peak area 2)*100%, peak area 1 is the integration of hydrolyzed product, peak area 2 is the integration of starting material.

Data set [2] in a line: Pharmacokinetics of 047 and 016 after single oral 047 in mice. The note with it: analyte after single PO 047 75 mg/kg, male C57BL/6 mice.
Procedure: Total twelve male mice were used in this study. Animals were administered through oral route with solution formulation of 047 at 75 mg/kg dose. The formulation vehicle used was normal saline. Blood samples (approximately 60 μL) were collected under light isoflurane anesthesia from a set of two mice at 0.25, 0.5, 1, 2, 4 and 8 h. The blood samples were collected at each time point in labeled micro centrifuge tube containing K2EDTA as anticoagulant and PMSF (100 mM; 10 μL/mL of blood) as a stabilizer. Plasma samples were separated by centrifugation of whole blood and stored below −70° C. until bioanalysis. Following blood collection, immediately animals were sacrificed followed by abdominal vena-cava was cut open and whole body was perfused from heart using 10 mL of normal saline. Brain samples were collected from set of two mice at 0.25, 0.5, 1, 2, 4 and 8 h. After isolation, brain samples were rinsed three times in ice cold normal saline (for 5-10 seconds/rinse using ˜10-20 mL normal saline in disposable petri dish for each rinse) and dried on blotting paper. Brain samples were homogenized using ice-cold phosphate buffer saline (pH-7.4) and PMSF (100 mM; 10 μL/mL of blood) as a stabilizer. Brain homogenates were stored below −70±10° C. until analysis. Total homogenate volume was three times of the brain weight.
Plasma and brain samples were quantified by fit-for-purpose LC-MS/MS method.
A further data set concerns the target T1, SERT (Homo sapiens, UniProt P31645).
T1 construct: expressed in transfected cells
The data set is described as follows: SERT inhibition, Neurotransmitter Transportation Fluorescence assay. The class given is cell-based. Conditions: 30 minutes at 37° C. Here is the method:
SERT inhibition was measured using a Neruotransmitter Transportation Fluorescence assay. […] Compounds were prepared by in assay buffer (20 mM HEPES, 0.1% BSA). The compounds were added to the plated cells and incubated for 30 minutes at 37° C. 25 μL of dye solution (Molecular Devices Neurotransmitter Transporter Uptake Assay Kit) was added per well and incubated for 30 minutes at 37° C. The plates were then read on a plate reader.

Where [3] appears, read: pH = 7.4, 25° C., PBS (20 mM), 0-24 h.
[4] abbreviates: pH = 2.0, 25° C., 0.01M HCl, 0-24 h.
Setting [5] is: pH = 2.0, 37° C., 0.01M HCl, 0-24 h.

T1 sequence (P31645 whole entry, species assumed): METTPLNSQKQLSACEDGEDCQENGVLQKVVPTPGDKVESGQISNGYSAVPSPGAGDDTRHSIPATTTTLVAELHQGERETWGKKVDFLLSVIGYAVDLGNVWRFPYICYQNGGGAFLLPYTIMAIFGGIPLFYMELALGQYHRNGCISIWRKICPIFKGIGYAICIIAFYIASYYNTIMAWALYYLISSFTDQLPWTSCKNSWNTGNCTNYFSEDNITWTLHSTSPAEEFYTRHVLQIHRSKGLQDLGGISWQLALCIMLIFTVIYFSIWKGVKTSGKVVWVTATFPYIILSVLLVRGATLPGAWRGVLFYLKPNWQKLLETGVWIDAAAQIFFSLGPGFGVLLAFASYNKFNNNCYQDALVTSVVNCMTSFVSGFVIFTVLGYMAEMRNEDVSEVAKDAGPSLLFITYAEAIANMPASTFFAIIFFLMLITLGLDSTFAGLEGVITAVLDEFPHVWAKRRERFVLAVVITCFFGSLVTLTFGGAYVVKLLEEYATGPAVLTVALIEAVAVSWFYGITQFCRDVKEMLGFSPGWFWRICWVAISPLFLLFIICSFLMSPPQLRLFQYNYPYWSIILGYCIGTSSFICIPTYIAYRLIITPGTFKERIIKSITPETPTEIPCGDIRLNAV

For `COc1ccc(C23C=CC(=O)CC2N(C)CC3)cc1OC` (racemic) [Compound 016, 3a-(3,4-dimethoxyphenyl)-1-methyl-2,3,7,7a-tetrahydroindol-6-one, reference compound], in data set [1] (pH 2.0 in 0.01 M HCl to pH 7.4 in 20 mM PBS, 25° C. to 40° C.), the “further hydrolysis (in words)” value is on record as “did not further hydrolyze”. Further, in data set [1] (setting [3]), the “Conversion (%)” value was 0% and the “Notes (stability)” value is listed as “Stable”. Also, the “Brain concentrations quantifiable up to” value in data set [2] was “up to 4 h”.

As to `COc1ccc([C@@]23C=CC4(C[C@@H]2N(C)CC3)SCCS4)cc1OC` (stereo in doubt) [Compound 017, 3′a-(3,4-dimethoxyphenyl)-1′-methyl-spiro[1,3-dithiolane-2,6′-2,3,7,7a-tetrahydroindole]], the “Conversion (%)” value in data set [1] (setting [4]) and in data set [1] (setting [5]) was 0% each time. For the same compound, the “Notes (stability)” value in data set [1] (setting [4]) and in data set [1] (setting [5]) was “Stable” throughout.

Turning to `COc1ccc(C23C=CC4(CC2N(C)CC3)OCCO4)cc1OC` (stereo not drawn) [Compound 015, (3′aR,7′aS)-3′a-(3,4-dimethoxyphenyl)-1′-methyl-spiro[1,3-dioxolane-2,6′-2,3,7,7a-tetrahydroindole]], the “conversion to mesembrenone (in words)” value in data set [1] (pH 2) is listed as “converted to mesembrenone”.

As to `COc1ccc([C@@]23C=CC4(C[C@@H]2N(C)CC3)OCCO4)cc1OC` [Compound 015, (3′aR,7′aS)-3′a-(3,4-dimethoxyphenyl)-1′-methyl-spiro[1,3-dioxolane-2,6′-2,3,7,7a-tetrahydroindole]], the “Conversion (%)” value turned out to be 19% in data set [1] (pH = 2.0, 25° C., 0.01M HCl, 1 min); 46% in data set [1] (pH = 2.0, 25° C., 0.01M HCl, 10 min); 66% in data set [1] (pH = 2.0, 25° C., 0.01M HCl, 30 min); 99% in data set [1] (pH = 2.0, 25° C., 0.01M HCl, 120 min).

Compound `COc1ccc([C@@]23C=CC4(C[C@@H]2N(C)CC3)OCCO4)cc1OC` [Compound 047, (3′aR,7′aS)-3′a-(3,4-dimethoxyphenyl)-1′-methyl-spiro[1,3-dioxolane-2,6′-2,3,7,7a-tetrahydroindole]] came in with an IC50 against SERT of 581 nM. Further, in data set [2], the “Brain concentrations quantifiable up to” value was “up to 4 h”.

With `COc1ccc([C@]23C=CC4(C[C@H]2N(C)CC3)OCCO4)cc1OC` [Compound 048, (3′aS,7′aR)-3′a-(3,4-dimethoxyphenyl)-1′-methyl-spiro[1,3-dioxolane-2,6′-2,3,7,7a-tetrahydroindole]], on SERT, the IC50 came to 939 nM.

In turn, `COc1ccc([C@@]23C=CC4(C[C@@H]2N(C)CC3)SCCS4)cc1OC` [Compound 049, (3′aR,7′aS)-3′a-(3,4-dimethoxyphenyl)-1′-methyl-spiro[1,3-dithiolane-2,6′-2,3,7,7a-tetrahydroindole]] returned a 50% inhibitory concentration (IC50) at SERT of 159 nM.

On SERT, `COc1ccc([C@]23C=CC4(C[C@H]2N(C)CC3)SCCS4)cc1OC` [Compound 050, (3′aS,7′aR)-3′a-(3,4-dimethoxyphenyl)-1′-methyl-spiro[1,3-dithiolane-2,6′-2,3,7,7a-tetrahydroindole]] displayed an IC50 of 405 nM.

In general, IC50 refers to the point on the concentration scale where inhibition reaches its midpoint.
